Measurements from patent US20080242590A1, “New Method 706” (ASTRAZENECA AB, priority 2007, published 2008).

Experiments:
Type in all cases: biochemical
[1] = tested on: amyloid β peptide 1-42 (Aβ42); experiment: Ex-vivo degradation of Aβ42 in guinea pig plasma; conditions: 10 μM, combined with 208 μg/ml His-Fc-Nep
Method: (§1) Degradation of amyloid β peptide 1-40 (Aβ40) and amyloid β peptide 1-42 (Aβ42) by neprilysin was investigated using heparinized plasma from male Dunkin Hartley guinea pigs, weighing 250-300 g (HBLidkoping ka). Blood was withdrawn from anaesthetized guinea pigs by heart puncture. The blood were collected into prechilled heparin-plasma tubes and centrifuged for 10 min at 4° C. at 3000×g within 20 minutes of sampling. Plasma samples were transferred to pre-chilled polypropylene tubes and immediately frozen on dry ice and stored at −70° C. prior to use. The experiments were performed on a pool of plasma from seven guinea pigs. His-Fc-Nep (6 μg/ml or 208 μg/ml) or 5 μg/ml recombinant human Neprilysin (R&D systems) with corresponding vehicles (50 mM Tris-HCl, 150 mM NaCl pH 7.5 or 25 mM Tris-HCl, 0.1 M NaCl pH 8.0) were incubated with a pool of plasma in presence or absence of 10 μM phosphoramidon (BIOMOL) at 37° C. for 0 and 4 h. A final concentration of 4.7 mM EDTA was added into the tubes before the amount of Aβ40 and Aβ42 was analysed using a commercial ELISA kit obtained from Biosource (Aβ1-40) or Innogenetics (Aβ1-42).

amyloid β 1-40 peptide = experiment: Degradation of amyloid β 1-40 peptide by Fc-Neprilysin and Neprilysin in buffer; conditions: 10 μM Phosphoramidone
Method: The assay is measuring the remaining amyloid β 1-40 peptide (Bachem) concentration following its incubation in the presence of Neprilysin (R&D Systems) or Fc-Neprilysin with or without Neprilysin inhibitor. 100 μl of reaction mixture containing amyloid β 1-40 peptide (final concentrations, 300, 30 or 3 nM) and/or Neprilysin (2.4 μg/ml), and/or Fc-Neprilysin construct (2.4 μg/ml), and/or Phosphoramidone (10 μM) was incubated in a round bottom 96-well polypropylene plate at 37° C. for 2.5 hours. Following incubation, 10 μl of reaction mixture was transferred into Thermo-Fast© 96-well PCR plate (Abgene, UK) containing 10 μl of Standard Diluent (Gyros AB). Amyloid β 1-40 concentration was determined using Gyrolab Workstation LIF system. Biotinylated anti-amyloid β antibodies (6E10; final concentration 50 μg/ml; Signet) were used as capturing antibodies and polyclonal anti-human amyloid β antibodies (44-348; Biosource) labeled with Alexa Fluor 647 dye (Molecular probes) were used as detection antibodies. […] Amyloid β 1-40 peptide degradation by Neprilysin was calculated as a percentage of Amyloid β 1-40 peptide left after incubation in the presence of Neprilysin compared to the amyloid β 1-40 peptide concentration in the absence of Neprilysin.

[2] = tested on: amyloid β peptide 1-40 (Aβ40); experiment: Degradation of Aβ40 in human plasma (Example 18); conditions: 10 μM phosphoramidon
Method: Blood from eight individuals (5 females and 3 males) were collected into pre-chilled heparin-plasma tubes at the healthcare centre (AstraZeneca) at two different time points. Plasma was prepared by centrifugation for 20 min at 4° C. at 2500×g within 30 minutes of sampling. Plasma samples were transferred to pre-chilled polypropylene tubes and immediately frozen and stored at −70° C. prior to use. His-Fc-Nep (6 μg/ml) or 5 μg/ml recombinant human Neprilysin (R&D systems) with corresponding vehicles (50 mM Tris-HCl, 150 mM NaCl pH 7.5 or 25 mM Tris-HCl, 0.1 M NaCl pH 8.0) in presence or absence of 10 μM phosphoramidon was incubated with a pool of plasma at 37° C. for 0 and 4 h. A final concentration of 4.7 mM EDTA was added into the tubes before the amount of Aβ40 was analysed using a commercial ELISA kit obtained from Biosource. His-Fc-Nep (6 μg/ml) and commercial human recombinant neprilysin (5 μg/ml) degraded Aβ40 with 33% and 70%, respectively, compared to vehicle after 4 hours incubation at 37° C. The Aβ40 levels were unaffected after addition of 10 μM phosphoramidon (FIG. 4).

[3] = tested on: amyloid β peptide 1-40 (Aβ40); experiment: Ex-vivo degradation of Aβ40 in guinea pig plasma; conditions: 10 μM phosphoramidon
Method: as §1

## CC(C)C[C@H](NP(=O)(O)O[C@@H]1O[C@@H](C)[C@H](O)[C@@H](O)[C@H]1O)C(=O)N[C@@H](Cc1c[nH]c2ccccc12)C(=O)O [Phosphoramidone, reference compound]
[1]
  Inhibition of the Aβ42 reduction by phosphoramidon: not inhibited
Amyloid β 1-40 peptide
  Specific Neprilysin activity in the presence of inhibitor: almost completely abolished
[2]
  Aβ40 levels after addition of inhibitor to the enzyme incubation: unaffected
[3]
  Aβ40 levels after addition of inhibitor to the enzyme incubation: unaffected
